Test results taken from patent US20260191815A1, “THIOACRYLAMIDE DERIVATIVES FOR USE IN THE PREVENTION OR TREATMENT OF LIVER FIBROSIS” (CMR CUREDIAB METABOLIC RESEARCH GMBH, priority 2022, published 2026).

Experiments:
[1] = system: alpha-1 type 1 collagen (COL1A1) protein in LX2 cells; test: Simple Western of COL1A1 protein in TGF-β1-stimulated LX2 hepatic stellate cells; type: cell-based, human; conditions: for upregulation of COL1A1 in TGF-β1-treated LX2 cells: 10 μM, 30 min pretreatment, then 5 ng/ml TGF-β1 for 24 h; for protein abundance of COL1A1: sole treatment 10 μM for 24 h, LX2 cells, no TGF-β1
Method: The human hepatic stellate cell line LX2 was purchased from Merck. The cells were used up to passage ten and incubated under sterile conditions at 37° C. and 5% CO2. The cells were cultivated in medium containing Dulbecco's Modified Eagle's Medium with 4.5 g/l glucose (ThermoFisher), 4 mmol/l glutamine (ThermoFisher), 2% fetal bovine serum (FBS) (Merck), 100 U/ml penicillin and 100 μg/ml streptomycin (Merck). After 2 days, LX2 cells were starved for FBS for 24 h and then pretreated with 10 μM HK1 (Taros Chemicals GmbH & Co. KG) or 10 μM HK3 (Taros Chemicals GmbH & Co. KG) for 30 min. Subsequently, 5 ng/ml recombinant TGF-β1 (R&D Systems, Minneapolis, MN, USA) was added to the hepatic stellate cell cultures for 24 h. LX2 cells were also incubated with 5 ng/ml TGF-β1 alone as positive control for the hepatic stellate cell activation. Recombinant TGF-β1 was dissolved in sterile 4 mmol/l HCl (Merck) containing 0.1% bovine serum albumin (Roth Karlsruhe, Germany) as carrier protein. HK1 and HK3 were dissolved in sterile dimethyl sulfoxide (DMSO) (Sigma-Aldrich, Munich, Germany). Stimulations with 10 μM HK1, 10 μM HK3 and the corresponding vehicles (HCl and DMSO with or without HCl) alone for 24 h were also included as treatments.
For the measurement of the pro-fibrotic proteins, Western Blotting was performed. Proteins were extracted from whole cell lysate of LX2 cells using RIPA lysis buffer containing 50 mmol/l Tris-HCl (pH 8.0), 150 mmol/l NaCl, 1% IGEPAL® CA-630, 0.5% sodium deoxycholate, 0.1% sodium dodecyl sulfate, 10% PhosSTOP Phosphatase Inhibitor Cocktail (Roche, Basel, Switzerland) and 10% cOmplete Mini Protease Inhibitor Cocktail (Roche). Lysates were centrifuged at 14850×g for 15 min at 4° C. Then, the total protein content of the lysates was determined using a bicinchoninic acid protein assay (ThermoFisher Scientific) in accordance with the manufacturer's instructions. The quantification of protein abundance was performed by Simple Western size-based assays using a 12-230 kDa and 66-440 kDa Separation Module (ProteinSimple, San Jose, CA, USA) according to the manufacturer's instructions. This fully automated Western blotting system is based on a capillary electrophoresis technology. The separation, immobilization to the capillary wall via a proprietary, photoactivated capture chemistry and immunodetection of the proteins using a horseradish peroxidase (HRP)-conjugated secondary antibody and chemiluminescent substrate take place directly in the capillary without gel separation and transfer steps to blotting paper. The chemiluminescence is measured at multiple exposure times and automatically quantified by the Compass for Simple Western software (version 4.1.0) (ProteinSimple). The chemiluminescent signal for immunodetected proteins, which can be represented as an electropherogram or virtual blot-like image, is automatically quantified by calculation of the area under the curve of the peak.
The software reports the molecular weight, the area (in an arbitrary unit and in percent) and signal to noise ratio for each protein detected. The primary antibodies for the recognition of endogenous levels of total alpha-1 type 1 collagen (COL1A1) protein (#72026) and total fibronectin 1 (FN1) protein (#26836) were purchased from Cell Signaling Technology (Danvers, MA, USA). The anti-rabbit HRP-linked secondary antibody was from ProteinSimple. […]
Differences were analysed by one-way ANOVA followed by the Tukey method as correction for multiple testing.

[2] = system: 3D primary human hepatocyte (PHH) spheroid NASH model; test: Viability (ATP, CellTiter-Glo) of 3D PHH:NPC spheroids; type: cell-based; conditions: 0.1 μM to 10 μM, up to 2 weeks
Method: Experiments were conducted using HepaPredict's (HepaPredict AB, Sweden) 3D primary human hepatocyte (PHH) spheroid NASH model (e.g. as published in Bell et al. Sci Rep. 2016 May 4; 6:25187. doi: 10.1038/srep25187).
Cryopreserved primary human hepatocytes were obtained from BioIVT (USA) and nonparenchymal cells (NPC) from LifeNetHealth (USA). After thawing, PHH-NPC cocultures were seeded in a multi-well 96-well Elplasia plate (Corning) in William's E medium containing 11 mM glucose, 10 μg/mL (control) or 10 mg/mL insulin (NASH), 100 nM dexamethasone, 5.5 mg/L transferrin, 6.7 μg/L selenite, 2 mM L-glutamine, 1 U/mL penicillin, 0.1 mg/mL streptomycin, and 10% fetal bovine serum (FBS). […]
After spheroid formation, cells were exposed to up to five different concentrations of the candidate molecules HK1 or HK3 (0.1 μM, 0.3 μM, 1 μM, 3 μM, and 10 μM) with or without FFA in the culture medium. […] All endpoints were evaluated after 14 days of exposure. […]
Viability was evaluated by ATP quantification using the CellTiter-Glo Luminescent Cell Viability Assay (Promega) according to the manufacturer's instructions. […] Subsequently, luminescence signals were measured using a SpectraMax iD5 multi-mode microplate reader (Molecular Devices). Viability was evaluated after up to two weeks of exposure and values are plotted as relative to vehicle (DMSO) controls with or without FFA. […]

Structure (SMILES) | upregulation of COL1A1 in TGF-β1-treated LX2 cells [1] | protein abundance of COL1A1 [1] | viability of the spheroids (ATP) relative to vehicle (DMSO) [2]
Cc1cc(NC(=S)/C(C#N)=C(\O)C2CC2)ccc1[N+](=O)[O-] [HK3, 2-Cyano-3-cyclopropyl-3-hydroxy-N-(3-methyl-4-nitro-phenyl)-thioacrylamide] | completely suppressed | no impact | did not affect
Cc1cc(NC(=S)/C(C#N)=C(\O)C2CC2)ccc1F [HK1, 2-Cyano-3-cyclopropyl-N-(4-fluoro-3-methyl-phenyl)-3-hydroxy-thioacrylamide] | completely suppressed | no impact | did not affect
